Assays:
[1] = biological target: T1, human recombinant adrenergic α1D receptor (Homo sapiens, UniProt P25100); assay: Adrenergic α1D radioligand binding ([3H]Prazosin); conditions: compound at 0.1 μM; read-out: Percentage inhibition of ligand binding, Adrenergic (0.1 μM) a1D
T1 construct: expressed in transfected cells; host or cells: human embryonic kidney (HEK-293) cells
T1 sequence (P25100 1-572): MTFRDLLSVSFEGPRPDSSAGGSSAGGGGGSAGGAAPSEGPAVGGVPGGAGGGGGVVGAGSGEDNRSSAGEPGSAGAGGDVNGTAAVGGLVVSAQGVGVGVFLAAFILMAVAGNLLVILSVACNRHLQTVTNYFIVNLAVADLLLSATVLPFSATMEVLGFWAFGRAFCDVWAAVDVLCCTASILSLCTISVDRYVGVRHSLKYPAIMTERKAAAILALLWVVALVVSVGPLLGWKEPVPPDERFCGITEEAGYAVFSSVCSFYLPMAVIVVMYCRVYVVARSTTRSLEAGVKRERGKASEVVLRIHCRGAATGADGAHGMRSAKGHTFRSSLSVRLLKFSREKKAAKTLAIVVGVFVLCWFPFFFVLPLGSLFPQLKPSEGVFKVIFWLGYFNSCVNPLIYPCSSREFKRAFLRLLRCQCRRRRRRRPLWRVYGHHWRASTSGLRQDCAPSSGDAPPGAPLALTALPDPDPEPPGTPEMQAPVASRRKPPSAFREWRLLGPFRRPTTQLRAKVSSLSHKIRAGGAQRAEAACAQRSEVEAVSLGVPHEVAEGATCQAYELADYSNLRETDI
Method: To evaluate in radioligand binding assays the activity of compounds of the invention, human recombinant adrenergic α1D receptor expressed in human embryonic kidney (HEK-293) cells (Kenny, B. et al, Br. J. Pharmacol. 115(6):981, 1995) in a 50 mM Tris-HCl buffer, pH 7.4, was used. Compounds of invention were incubated with 0.6 nM [^3H]Prazosin for 60 min at 25° C. Non-specific binding was estimated in the presence of 10 μM phentolamine. Receptor proteins were filtered and washed, the filters were then counted to determine [^3H]Prazosin specifically bound. Compounds were screened at 1 μM or lower, using 1% DMSO as vehicle. Biochemical assay results are presented as the percent inhibition of specific binding in Table 3.

[2] = biological target: T2, human recombinant serotonin (5-Hydroxytryptamine) 5-HT5A receptor (Homo sapiens, UniProt P47898); assay: Serotonin 5-HT5A radioligand binding ([3H]LSD); conditions: compound at 0.1 μM; read-out: Percentage inhibition of ligand binding, Serotonin (0.1 μM) 5-HT5A
T2 construct: expressed in transfected cells; host or cells: Chinese hamster ovary (CHO) K1 cells
Method: To evaluate in radioligand binding assays the activity of compounds of the invention, human recombinant serotonin (5-Hydroxytryptamine) 5-HT5A receptor expressed in Chinese hamster ovary (CHO) K1 cells (Rees, S. et al, FEBS Lett. 355:242, 1994) in a modified Tris-HCl buffer (50 mM Tris-HCl, pH 7.4, 10 mM MgCl2, 0.5 mM EDTA) was used. Compounds of the invention were incubated with 1.7 nM [^3H]Lysergic acid diethylamide (LSD) for 60 min at 37° C. Non-specific binding was estimated in the presence of 100 μM Serotonin (5-HT). Receptor proteins were filtered and washed, the filters were counted to determine [^3H]LSD specifically bound. Compounds were screened at 1 μM or lower, using 1% DMSO as vehicle. Biochemical assay results are presented as the percent inhibition of specific binding in Table 4.

[3] = biological target: human recombinant dopamine D2L receptor (Homo sapiens, UniProt P14416); assay: Dopamine D2L radioligand binding ([3H]Spiperone); conditions: compound at 0.2 μM; read-out: Percentage inhibition of ligand binding, Dopamine (0.2 μM) D2L
Method: To evaluate in radioligand binding assays the activity of compounds of the invention, human recombinant dopamine D2L receptor expressed in Chinese hamster ovary (CHO) cells (Grandy, D. et al, Proc. Natl. Acad. Sci. USA. 86:9762, 1989; Hayes, G. et al, Mol. Endocrinol. 6:920, 1992) in a modified Tris-HCl buffer (50 mM Tris-HCl, pH 7.4, 1.4 mM Ascorbic Acid, 0.001% BSA, 150 mM NaCl) was used. Compounds of the invention were incubated with 0.16 nM [^3H]Spiperone for 120 min at 25° C. Non-specific binding was estimated in the presence of 10 μM Haloperidol. Receptor proteins were filtered and washed, the filters were then counted to determine [^3H]Spiperone specifically bound. Compounds were screened at 1 μM or lower, using 1% DMSO as vehicle. Biochemical assay results are presented as the percent inhibition of specific binding in Table 3.

[4] = biological target: T3, human recombinant adrenergic α2C receptor (Homo sapiens, UniProt P18825); assay: Adrenergic α2C radioligand binding ([3H]MK-912); conditions: compound at 0.1 μM; read-out: Percentage inhibition of ligand binding, Adrenergic (0.1 μM) a2C
T3 construct: expressed in transfected cells; host or cells: insect Sf9 cells
T3 sequence (P18825 1-462): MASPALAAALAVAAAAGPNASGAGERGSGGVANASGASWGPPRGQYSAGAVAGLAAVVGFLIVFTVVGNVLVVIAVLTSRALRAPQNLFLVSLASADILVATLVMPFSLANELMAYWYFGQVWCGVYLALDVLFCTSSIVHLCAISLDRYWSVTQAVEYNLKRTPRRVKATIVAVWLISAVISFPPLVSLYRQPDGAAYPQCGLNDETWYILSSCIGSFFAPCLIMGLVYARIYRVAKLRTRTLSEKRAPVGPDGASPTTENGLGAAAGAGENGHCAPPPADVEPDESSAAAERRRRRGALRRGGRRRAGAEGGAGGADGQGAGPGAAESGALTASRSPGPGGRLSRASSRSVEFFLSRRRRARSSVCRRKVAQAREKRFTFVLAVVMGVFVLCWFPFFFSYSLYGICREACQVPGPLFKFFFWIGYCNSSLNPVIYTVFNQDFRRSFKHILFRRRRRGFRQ
Method: To evaluate in radioligand binding assays the activity of compounds of the invention, human recombinant adrenergic α2C receptor expressed in insect Sf9 cells (Uhlen, S. et al, J. Pharmacol. Exp. Ther. 271:1558, 1994) in a modified Tris-HCl buffer (50 mM Tris-HCl, pH 7.4, 12.5 mM MgCl2, 2 mM EDTA) was used. Compounds of the invention were incubated with 1 nM [^3H]MK-912 for 60 min at 25° C. Non-specific binding was estimated in the presence of 10 μM WB-4101. Receptor proteins were filtered and washed, the filters were then counted to determine [^3H]MK-912 specifically bound. Compounds were screened at 1 μM or lower, using 1% DMSO as vehicle. Biochemical assay results are presented as the percent inhibition of specific binding in Table 3.

Chain of human recombinant dopamine D2L receptor (P14416 whole entry): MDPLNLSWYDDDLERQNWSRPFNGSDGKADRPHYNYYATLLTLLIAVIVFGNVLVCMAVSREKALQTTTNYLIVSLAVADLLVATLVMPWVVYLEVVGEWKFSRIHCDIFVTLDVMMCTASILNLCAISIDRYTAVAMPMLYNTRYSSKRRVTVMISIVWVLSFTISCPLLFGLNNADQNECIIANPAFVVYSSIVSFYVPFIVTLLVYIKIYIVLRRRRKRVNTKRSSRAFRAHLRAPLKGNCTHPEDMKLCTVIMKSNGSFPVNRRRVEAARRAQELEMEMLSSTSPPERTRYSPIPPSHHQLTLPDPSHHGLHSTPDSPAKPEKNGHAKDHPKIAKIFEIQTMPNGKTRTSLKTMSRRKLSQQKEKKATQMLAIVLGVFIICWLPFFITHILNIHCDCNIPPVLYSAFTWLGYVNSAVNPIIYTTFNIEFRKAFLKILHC
T2 sequence (P47898 whole entry): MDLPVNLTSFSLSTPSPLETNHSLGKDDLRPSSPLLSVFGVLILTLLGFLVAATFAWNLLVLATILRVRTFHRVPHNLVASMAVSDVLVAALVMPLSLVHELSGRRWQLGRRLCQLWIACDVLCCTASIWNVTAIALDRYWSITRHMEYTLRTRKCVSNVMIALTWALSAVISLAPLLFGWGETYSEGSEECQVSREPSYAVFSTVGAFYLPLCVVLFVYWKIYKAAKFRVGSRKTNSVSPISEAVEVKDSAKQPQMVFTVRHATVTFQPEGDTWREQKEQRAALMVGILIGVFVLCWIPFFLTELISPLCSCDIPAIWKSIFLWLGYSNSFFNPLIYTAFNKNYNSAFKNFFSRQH

Row | SMILES | inhibition at 0.1 µM [1] [%] | inhibition at 0.1 µM [2] [%] | inhibition at 0.2 µM [3] [%] | inhibition at 0.1 µM [4] [%]
1 | C#CCC1(C)CN(C)Cc2c1n(C)c1ccc(C)cc21 (centres unmarked) [Compound 47, 2,4,5,8-tetramethyl-4-(prop-2-ynyl)-2,3,4,5-tetrahydro-1H-pyrido[4,3-b]indole] | 10 | 34 | 5 | 8
2 | Cc1ccc2c(c1)c1c(n2C)C(C)(CCc2nc(-c3ccccc3)cs2)CN(C)C1 (centres unmarked) [Compound 48] | 13 | -3 | -5 | 15

From US20130172320A1, “PYRIDO [4,3-B] INDOLE AND PYRIDO [3,4-B] INDOLE DERIVATIVES AND METHODS OF USE” (priority 2010, published 2013)
